Source: ChEMBL document CHEMBL1121763, “2,3-Dihydrobenzofuran-2-ones: a new class of highly potent antiinflammatory agents” (J Med Chem, 1981)

Legend:
Rattus norvegicus [1] = species: Rattus norvegicus; assay: animal or person; type: functional; conditions: po, 3 h
Description: Compound administered perorally for inhibition of carrageenan induced paw edema after 3h in rat

[2] = target: Cyclooxygenase (Bos taurus)
Rattus norvegicus [3] = assay: Inhibition of adjuvant-induced polyarthritis in rat following p.o. administration.; type: functional; conditions: po

Row | Compound | ED50 (Rattus norvegicus [1]) [mg/kg] | IC50 [2] [nM] | ED50 (Rattus norvegicus [3]) [mg/kg]
1 | O=C1Cc2cc(C3CCCCC3)ccc2O1 | > 60 | 10000 | 
2 | O=C1Cc2ccccc2O1 | > 60 | > 100000 | 
3 | O=C1Cc2cc([N+](=O)[O-])c(C3CCCCC3)cc2O1 | 6 | 500 | 4
4 | O=C1Cc2ccc(C3CCCC3)cc2O1 | 30 | 10000 | 60
5 | CC1C(=O)Oc2cc(C3CCCCC3)ccc21 (configuration not stated) | 0.8 | 400 | 2.5
6 | O=C1Cc2cc(Br)c(C3CCCCC3)cc2O1 | 2 | 30 | 7
7 | CC(C)Cc1ccc2c(c1)OC(=O)C2 | 8 | 3000 | > 40
8 | COc1cc2c(cc1-c1ccccc1)OC(=O)C2 | 30 | 10000 | 30
9 | O=C1Cc2cc(Cl)c(-c3ccccc3)cc2O1 | 1 | 80 | 3
10 | Cc1cc2c(cc1C1CCCCC1)OC(=O)C2C (configuration not stated) | 6 | 100 | < 3
11 | O=C1Cc2cc(O)c(-c3ccccc3)cc2O1 | > 30 | 50000 | 
12 | CC1C(=O)Oc2cc(-c3ccccc3)c(Cl)cc21 (configuration not stated) | 0.3 | 80 | 2
13 | Cc1cc2c(cc1C1CCCCC1)OC(=O)C2 | 3 | 100 | 1.5
14 | CC1C(=O)Oc2cc(-c3ccccc3)ccc21 (configuration not stated) | 2.5 | 500 | 14
15 | O=C1Cc2cc(Cl)c(C3CCCCC3)c(Cl)c2O1 | 2 | 1000 | 30
16 | O=C1Cc2ccc(C3CCCCC3)c(Br)c2O1 | 36 | 3000 | > 30
17 | O=C1Cc2ccc(C3CCCCC3)cc2O1 | 1 | 800 | 20
18 | CCC1C(=O)Oc2cc(-c3ccccc3)ccc21 (configuration not stated) | 25 | 50000 | > 30
19 | CC1C(=O)Oc2cc(C3CCCCC3)c(Cl)cc21 (configuration not stated) | 0.3 | 70 | 1
20 | O=C1Cc2ccc(-c3ccccc3)cc2O1 | 6 | 700 | 20
21 | O=C1Cc2cccc(C3CCCCC3)c2O1 | > 60 | 100000 | > 30
22 | O=C1Cc2cc(Cl)c(C3CCCCC3)cc2O1 [CLOFURAC] | 0.5 | 50 | 1
23 | O=C(O)Cc1ccccc1Nc1c(Cl)cccc1Cl [DICLOFENAC] | 3 |  | 2
24 | COc1ccc2c(c1)c(CC(=O)O)c(C)n2C(=O)c1ccc(Cl)cc1 [INDOMETHACIN] | 2 |  | 0.4
